{"source": "patent US20080124407A1", "about": "“INHIBITING CYP3A4 INDUCTION” (UNIVERSITY OF WASHINGTON, priority 2006, published 2008)", "key": {"[1]": {"molecular_target": "T1, SXR (Homo sapiens, UniProt O75469)", "T1 sequence (O75469 1-434)": "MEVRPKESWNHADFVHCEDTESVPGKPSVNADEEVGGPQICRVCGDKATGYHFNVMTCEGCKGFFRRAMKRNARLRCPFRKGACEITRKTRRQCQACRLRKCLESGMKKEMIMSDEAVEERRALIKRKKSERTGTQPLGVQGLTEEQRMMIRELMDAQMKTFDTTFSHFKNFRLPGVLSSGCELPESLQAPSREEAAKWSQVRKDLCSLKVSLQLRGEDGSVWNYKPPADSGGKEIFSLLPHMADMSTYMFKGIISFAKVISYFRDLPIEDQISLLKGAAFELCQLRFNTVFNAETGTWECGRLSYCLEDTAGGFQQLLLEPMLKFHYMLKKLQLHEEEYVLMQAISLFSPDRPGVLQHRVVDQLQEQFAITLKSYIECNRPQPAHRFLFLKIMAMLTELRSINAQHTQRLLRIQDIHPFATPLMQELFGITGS", "assay": "Transient transfection luciferase assay, full-length SXR with CYP3A4-luc reporter in HepG2 cells", "details": "for inhibitory activity toward SXR function (SFN analogs): 24 hrs"}, "[2]": {"system": "UGT1A1", "assay": "UGT1A1 gene expression by QRT-PCR", "type": "cell-based, human"}, "[3]": {"molecular_target": "SXR / SRC-1 interaction (Homo sapiens, UniProt O75469)", "details": "10 μM RIF"}, "[4]": {"molecular_target": "GAL4-SXR (Homo sapiens, UniProt O75469)", "assay": "cell-based"}, "[5]": {"system": "human hepatocytes", "details": "pretreatment with 50 μM SFN; cited from earlier work"}, "[6]": {"molecular_target": "VDR (Homo sapiens, UniProt P11473)", "sequence (P11473 127-423 limits assumed, species assumed)": "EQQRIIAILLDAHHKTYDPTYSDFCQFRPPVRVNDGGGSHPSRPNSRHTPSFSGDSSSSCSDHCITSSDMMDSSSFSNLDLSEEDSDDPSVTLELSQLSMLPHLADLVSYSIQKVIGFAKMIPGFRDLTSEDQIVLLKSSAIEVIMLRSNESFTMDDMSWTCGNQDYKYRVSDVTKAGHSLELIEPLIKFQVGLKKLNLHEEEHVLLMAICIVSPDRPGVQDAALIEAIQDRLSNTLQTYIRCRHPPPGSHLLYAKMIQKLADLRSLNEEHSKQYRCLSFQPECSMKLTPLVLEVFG", "details": "10 μM SFN"}, "[7]": {"molecular_target": "rat PXR (Rattus norvegicus, UniProt Q9R1A7)", "sequence (Q9R1A7 143-430 limits assumed)": "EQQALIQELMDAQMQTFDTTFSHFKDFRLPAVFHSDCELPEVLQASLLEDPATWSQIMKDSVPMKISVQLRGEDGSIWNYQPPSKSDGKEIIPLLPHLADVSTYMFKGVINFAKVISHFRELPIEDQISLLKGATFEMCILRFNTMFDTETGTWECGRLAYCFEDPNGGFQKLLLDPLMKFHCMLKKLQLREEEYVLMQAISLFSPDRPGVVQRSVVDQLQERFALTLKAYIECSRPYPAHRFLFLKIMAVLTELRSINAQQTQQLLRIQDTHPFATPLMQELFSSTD", "details": "10 μM SFN"}, "[8]": {"system": "NQO1 and Glutamate Cysteine Ligase (both GCLM and GCLC)", "details": "10 or 50 μM SFN, 48 hrs"}, "[9]": {"molecular_target": "human SXR ligand binding domain (Homo sapiens, UniProt O75469)", "assay": "biochemical"}, "[10]": {"details": "human subjects who ingest SFN in a broccoli soup; cited from earlier work"}, "[11]": {"system": "MDR1 (ABCB1)", "details": "LS180 cells"}, "[12]": {"molecular_target": "CAR (Homo sapiens, UniProt Q14994)", "sequence (Q14994 109-352 limits assumed)": "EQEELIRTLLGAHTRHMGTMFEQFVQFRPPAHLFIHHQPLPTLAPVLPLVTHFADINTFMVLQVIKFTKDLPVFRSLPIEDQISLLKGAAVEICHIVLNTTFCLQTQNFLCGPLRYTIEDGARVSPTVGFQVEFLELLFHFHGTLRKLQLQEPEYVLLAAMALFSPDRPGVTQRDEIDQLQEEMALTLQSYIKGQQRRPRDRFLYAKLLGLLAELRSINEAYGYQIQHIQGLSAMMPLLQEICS", "details": "10 μM SFN"}, "[13]": {"system": "NQO1", "details": "LS180 cells, 10 or 25 μM SFN, 48 h"}, "[14]": {"molecular_target": "PPARα (Homo sapiens, UniProt Q07869)", "sequence (Q07869 239-466 limits assumed, species assumed)": "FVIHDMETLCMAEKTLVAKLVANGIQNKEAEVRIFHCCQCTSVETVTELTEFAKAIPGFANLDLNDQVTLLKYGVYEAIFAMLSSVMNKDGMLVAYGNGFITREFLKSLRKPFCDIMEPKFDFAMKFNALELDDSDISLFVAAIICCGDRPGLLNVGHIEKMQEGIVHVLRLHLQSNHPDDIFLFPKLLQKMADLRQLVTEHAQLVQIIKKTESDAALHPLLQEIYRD", "details": "10 μM SFN"}, "[15]": {"molecular_target": "PPARγ (Homo sapiens, UniProt P37231)", "sequence (P37231 238-503 limits assumed, species assumed)": "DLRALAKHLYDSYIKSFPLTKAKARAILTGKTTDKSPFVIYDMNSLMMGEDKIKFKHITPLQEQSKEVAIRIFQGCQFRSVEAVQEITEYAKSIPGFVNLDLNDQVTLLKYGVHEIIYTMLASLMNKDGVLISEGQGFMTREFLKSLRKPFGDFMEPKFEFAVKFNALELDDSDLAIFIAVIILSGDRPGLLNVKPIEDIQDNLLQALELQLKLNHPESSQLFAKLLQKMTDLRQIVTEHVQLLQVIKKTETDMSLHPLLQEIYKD", "details": "10 μM SFN"}, "[16]": {"molecular_target": "mouse PXR (Mus musculus, UniProt O54915)", "sequence (O54915 143-430 limits assumed)": "as the sequence (Q9R1A7 143-430 limits assumed) above, with D36G, V42F, S61R, V68L, H118Y, E121D, R191H, E192K, T272S counted along it", "details": "10 μM SFN"}, "[17]": {"system": "NQO1", "details": "human primary hepatocytes, 10 or 25 μM SFN, 48 h"}, "[18]": {"molecular_target": "SXR / PBP interaction (Homo sapiens, UniProt O75469)", "details": "10 μM RIF"}, "[19]": {"system": "CYP3A4", "details": "for average CYP3A4 mRNA levels relative to the solvent control: 48 hrs"}, "[20]": {"system": "CYP3A4", "details": "LS180 cells, SFN 24 hrs pre-treatment"}, "[21]": {"system": "rat CYP3A", "details": "in vivo; cited from earlier work"}, "[22]": {"molecular_target": "CYP3A4 (Homo sapiens, UniProt P08684)", "sequence (P08684 whole entry)": "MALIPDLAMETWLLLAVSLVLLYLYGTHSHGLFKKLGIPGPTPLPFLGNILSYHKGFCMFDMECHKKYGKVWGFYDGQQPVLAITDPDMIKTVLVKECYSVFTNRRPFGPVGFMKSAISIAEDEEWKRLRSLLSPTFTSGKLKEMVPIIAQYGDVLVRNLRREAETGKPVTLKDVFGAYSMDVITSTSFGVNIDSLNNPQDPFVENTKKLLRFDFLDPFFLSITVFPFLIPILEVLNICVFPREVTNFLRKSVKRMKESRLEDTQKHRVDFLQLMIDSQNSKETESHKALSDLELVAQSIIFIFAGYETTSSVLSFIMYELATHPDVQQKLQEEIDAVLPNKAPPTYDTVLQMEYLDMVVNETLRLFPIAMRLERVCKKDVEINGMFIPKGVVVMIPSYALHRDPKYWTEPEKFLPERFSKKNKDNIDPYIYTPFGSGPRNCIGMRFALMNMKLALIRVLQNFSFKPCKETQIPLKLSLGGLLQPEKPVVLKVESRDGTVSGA", "details": "concentrations as high as 50 μM; cited from earlier work"}, "[23]": {"system": "CYP3A4", "details": "hepatocytes"}, "[24]": {"molecular_target": "T2, VP16-SXR (human, UniProt O75469 1-434)", "T2 construct": "also called steroid and xenobiotic receptor; pregnane X receptor", "T2 sequence": "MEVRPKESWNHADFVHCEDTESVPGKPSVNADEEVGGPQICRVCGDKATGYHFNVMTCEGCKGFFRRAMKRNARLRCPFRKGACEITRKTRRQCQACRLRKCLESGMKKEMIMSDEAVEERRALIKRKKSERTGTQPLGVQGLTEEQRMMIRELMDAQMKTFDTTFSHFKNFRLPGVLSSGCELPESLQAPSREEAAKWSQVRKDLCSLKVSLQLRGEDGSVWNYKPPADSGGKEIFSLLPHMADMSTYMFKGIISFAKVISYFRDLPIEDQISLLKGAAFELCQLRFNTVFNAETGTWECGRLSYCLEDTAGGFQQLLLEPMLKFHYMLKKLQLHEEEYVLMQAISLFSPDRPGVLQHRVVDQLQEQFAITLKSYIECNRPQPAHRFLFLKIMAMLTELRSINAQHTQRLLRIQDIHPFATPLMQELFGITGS", "assay": "mammalian two-hybrid in HepG2 cells (GAL4 reporter, VP16-SXR, GAL-TIF2), with rifampicin"}, "[25]": {"molecular_target": "T2, VP16-SXR", "assay": "mammalian two-hybrid in HepG2 cells (GAL4 reporter, VP16-SXR, GAL-ACTR), with rifampicin"}}, "note": "Like-named read-outs stand apart in the source and are kept apart here.", "data": [{"molecule": "CS(=O)(=O)CCCN=C=S", "note": "[Cheirolin]", "values": [{"measurement": "inhibitory effect toward SXR function at low concentration", "setting": "[1]; 10 μM RIF, low concentration, compared with SFN", "result": "less potent at low concentration"}]}, {"molecule": "C[S+]([O-])CCCN=C=S", "note": "(stereo not drawn) [Iberin]", "values": [{"measurement": "inhibitory activity toward SXR function (SFN analogs)", "setting": "[1]; 10 μM RIF, compared with SFN", "result": "little effect on inhibitory potency"}]}, {"molecule": "S=C=NCCc1ccccc1", "note": "[PEITC, reference compound]", "values": [{"measurement": "inhibitory activity toward SXR function (SFN analogs)", "setting": "[1]; 10 μM RIF, compared with SFN", "result": "substantial loss of the inhibitory effect"}]}, {"molecule": "CC#C[C@]1(O)CC[C@H]2[C@@H]3CCC4=CC(=O)CCC4=C3[C@@H](c3ccc(N(C)C)cc3)C[C@@]21C", "note": "[RU486, mifepristone, reference compound]", "values": [{"measurement": "effect on UGT1A1 gene expression", "setting": "[2]", "result": "slightly induced"}]}, {"molecule": "C[S+]([O-])CCCCN=C=S", "note": "(stereo not drawn) [SFN, 4-methylsulfinylbutyl isothiocyanate]", "values": [{"measurement": "inhibition of RIF induced SRC-1 recruitment to SXR", "setting": "[3]", "result": "inhibited RIF induced SRC-1 and PBP recruitment to SXR in a dose dependent manner"}, {"measurement": "IC50", "setting": "[4]", "result": 14, "unit": "µM"}, {"measurement": "decrease in DNA adduction of aflatoxin B1", "setting": "[5]", "result": "> 90", "unit": "%"}, {"measurement": "activity as activating ligand of VDR", "setting": "[6]", "result": "nor did it serve as an activating ligand"}, {"measurement": "inhibition of ligand activation of VDR", "setting": "[6]", "result": "did not inhibit ligand activation"}, {"measurement": "activity as activating ligand of rPXR", "setting": "[7]", "result": "nor did it serve as an activating ligand"}, {"measurement": "inhibition of ligand activation of rPXR", "setting": "[7]", "result": "did not inhibit ligand activation"}, {"measurement": "mRNA levels of detoxification enzymes including NQO1, GCLM and GCLC", "setting": "[8]", "result": "increased mRNA levels"}, {"measurement": "Ki", "setting": "[9]", "result": 16, "unit": "µM"}, {"measurement": "peak plasma concentration of unconjugated SFN", "setting": "[10]", "result": "4 to 5", "unit": "µM"}, {"measurement": "inhibition of RIF or RU486 induced expression of MDR1 (ABCB1)", "setting": "[11]", "result": "inhibited RIF or RU486 induced expression of MDR1"}, {"measurement": "activity as activating ligand of CAR", "setting": "[12]", "result": "nor did it serve as an activating ligand"}, {"measurement": "inhibition of ligand activation of CAR", "setting": "[12]", "result": "did not inhibit ligand activation"}, {"measurement": "induction of NQO1", "setting": "[13]", "result": "significantly induced"}, {"measurement": "activity as activating ligand of PPARα", "setting": "[14]", "result": "nor did it serve as an activating ligand"}, {"measurement": "inhibition of ligand activation of PPARα", "setting": "[14]", "result": "did not inhibit ligand activation"}, {"measurement": "activity as activating ligand of PPARγ", "setting": "[15]", "result": "nor did it serve as an activating ligand"}, {"measurement": "inhibition of ligand activation of PPARγ", "setting": "[15]", "result": "did not inhibit ligand activation"}, {"measurement": "effect on UGT1A1 gene expression", "setting": "[2]", "result": "induced UGT1A1 gene expression"}, {"measurement": "activity as activating ligand of mPXR", "setting": "[16]", "result": "nor did it serve as an activating ligand"}, {"measurement": "inhibition of ligand activation of mPXR", "setting": "[16]", "result": "did not inhibit ligand activation"}, {"measurement": "induction of NQO1", "setting": "[17]", "result": "significantly induced"}, {"measurement": "inhibition of RIF induced PBP recruitment to SXR", "setting": "[18]", "result": "inhibited RIF induced SRC-1 and PBP recruitment to SXR in a dose dependent manner"}, {"measurement": "IC50", "setting": "[1]", "result": "~12", "unit": "µM"}, {"measurement": "inhibition of RIF and RU486 induced reporter activities", "setting": "[1]; 10 μM RIF or RU486, dose-dependent", "result": "significantly inhibited"}, {"measurement": "inhibition of RIF induced SXR reporter activity", "setting": "[1]; 25 μM SFN, 10 μM RIF", "result": "blocked most of the RIF induced SXR reporter activity"}, {"measurement": "concentration as low as which SXR reporter activity was inhibited", "setting": "[1]; HepG2, RIF or RU486 induced", "result": 1000, "unit": "nM"}, {"measurement": "average CYP3A4 mRNA levels relative to the solvent control", "setting": "[19]; 10 μM SFN", "result": 69, "unit": "%"}, {"measurement": "average CYP3A4 mRNA levels relative to the solvent control", "setting": "[19]; 25 μM SFN", "result": 20, "unit": "%"}, {"measurement": "average CYP3A4 mRNA levels relative to the solvent control", "setting": "[19]; 50 μM SFN", "result": 13, "unit": "%"}, {"measurement": "CYP3A4 responses in single individuals, lowest, of the solvent control", "setting": "[19]; single individuals", "result": 2, "unit": "%"}, {"measurement": "reduction in RIF- and RU486-mediated induction of CYP3A4", "setting": "[20]", "result": "dose-related reduction"}, {"measurement": "inhibition of rat CYP3A gene expression", "setting": "[21]", "result": "did not inhibit rat CYP3A gene expression"}, {"measurement": "direct inhibition of CYP3A4 catalytic activity", "setting": "[22]", "result": "not a direct inhibitor"}, {"measurement": "effect on basal level of CYP3A4 expression", "setting": "[23]", "result": "significantly reduced the basal level"}]}, {"molecule": "C[S+]([O-])CCCCC#N", "note": "(stereo not drawn) [SFN-nitrile, reference compound]", "values": [{"measurement": "inhibitory activity toward SXR function (SFN analogs)", "setting": "[1]; 10 μM RIF, compared with SFN", "result": "no inhibitory activity"}]}, {"molecule": "GAL4 DNA-binding domain linked to the receptor interaction domains of transcriptional intermediary factor (GAL-TIF2) (other) MKLLSSIEQACDICRLKKLKCSKEKPKCAKCLKNNWECRYSPKTKRSPLTRAHLTEVESRLERLEQLFLLIFPREDLDMILKMDSLQDIKALLTGLFVQDNVNKDAVTDRLASVETDMPLTLRQHRISATSSSEESSNKGQRQLTVSQNSPVNMNPPPLSKMGSLDSKDCFGLYGEPSEGTTGQAESSCHPGEQKETNDPNLPPAVSSERADGQSRLHDSKGQTKLLQLLTTKSDQMEPSPLASSLSDTNKDSTGSLPGSGSTHGTSLKEKHKILHRLLQDSSSPVDLAKLTAEATGKDLSQESSSTAPGSEVTIKQEPVSPKKKENALLRYLLDKDDTKDIGLPEITPKLERLDSKTDPASNTKLIAMKTEKEE", "values": [{"measurement": "binding result", "setting": "[24]", "result": "no binding (tested: 10 µM RIF)"}]}, {"molecule": "GAL4 DNA-binding domain linked to the receptor interaction domains of activator of thyroid and retinoic acid receptor (GAL-ACTR) (other) MKLLSSIEQACDICRLKKLKCSKEKPKCAKCLKNNWECRYSPKTKRSPLTRAHLTEVESRLERLEQLFLLIFPREDLDMILKMDSLQDIKALLTGLFVQDNVNKDAVTDRLASVETDMPLTLRQHRISATSSSEESSNKGQRQLTVSESSVEGAENQRGPLESKGHKKLLQLLTCSSDDRGHSSLTNSPLDSSCKESSVSVTSPSGVSSSTSGGVSSTSNMHGSLLQEKHRILHKLLQNGNSPAEVAKITAEATGKDTSSITSCGDGNVVKQEQLSPKKKENNALLRYLLDRDDPSDALSKELQPQVEGVDNKMSQCTSSTIPSSSQEKDPKIKTE", "values": [{"measurement": "binding result", "setting": "[25]", "result": "no binding (tested: 10 µM RIF)"}]}]}
